In patent US9060966B2, “Use of 2,5-dihydroxybenzene derivatives for the treatment of arthritis and pain” (priority 2006, dated 2015):
Entries after “also recorded” stand apart in the source; their conditions may differ.

Tests used:
[1] = test system: human retinal endothelial cells (HREC); test: Proliferation of human retinal endothelial cells (HREC, crystal violet); format: cell-based; details: calcium 2,5-dihydroxybenzenesulfonate, 100 μM, 72 h, for comparison
Method: (§1) 2A-5HBS was administered or not administered (control) after seeding the HREC in 24-well plates (7.5×10^3 per well) until they were fixed after 72 hours. The data are expressed as the mean±SEM of the percentage of the absorbance at 595 nm obtained in the control cultures, which is proportional to the number of cells stained with crystal violet. The data were obtained from 6 cultures for each treatment in two separate experiments. The white bar represents the value of the control cells, whereas the gray bars show the value in the presence of 2A-5HBS (500 and 1000 μM). * indicates p<0.05, *** p<0.001 with respect to the control by means of a single-factor analysis of variance (ANOVA) followed by a Student-Newman-Keuls post-analysis.
as §1, with “5A-2HBS” for “2A-5HBS”, “striped” for “gray”, “***” for “*”, “indicates” for “indicates p<0.05, ***”
2,5-DHCME was administered or not administered (control) after seeding the HREC in 24-well plates (7.5×10^3 per well) until they were fixed after 72 hours. The data are expressed as the mean±SEM of the percentage of the absorbance at 595 nm obtained in the control cultures, which is proportional to the number of cells stained with crystal violet. The data were obtained from 6 cultures for each treatment in two separate experiments.
Primary cultures of human retinal endothelial cells (HREC) were used. Cells were obtained from Cell Systems (Virginia, USA) and subcultured with CSC complete medium (Cell Systems). Cells at 2 to 5 passages were seeded in 24-well plates at 7,500 cells/well density and, once attached, the cells were treated o not treated (controls) with 2A-5HBS (500 and 1000 μM) or 5A-2HBS (500 and 1000 μM) and they were allowed to proliferate for 72 hours, with daily medium changes. After that, the proliferation of HREC was evaluated by staining the fixed cells with crystal violet. The number of cells is proportional to the amount of retained dye, which was spectrophotometrically determined by measuring absorbance at 595 nm after removing the dye from the cells. Data are expressed as the percentage of absorbance at 595 nm obtained in control conditions. Data were obtained from two different experiments performed in triplicate.
Primary cultures of human retinal endothelial cells (HREC) were used. Cells were obtained from Cell Systems (Virginia, USA) and subcultured with CSC complete medium (Cell Systems). […] After that, the proliferation of HREC was evaluated by staining the fixed cells with crystal violet. The number of cells is proportional to the amount of retained dye, which was spectrophotometrically determined by measuring absorbance at 595 nm after removing the dye from the cells. Data are expressed as the percentage of absorbance at 595 nm obtained in control conditions. […]

[2] = test system: uterine tissue implanted in the peritoneal cavity; test: Rat model of endometriosis (autologous implant, histology); format: in vivo; details: 200 mg/kg/day i.p., two weeks
Description: In these rats, the epithelial layer (a) and the stroma (b) are clearly observed in the endometrium, while longitudinal (c) and circular (d) normal layers of smooth muscle cells are observed in the myometrium adjacent to the peritoneal tissue (e). […] The neovascularization observed in the uterine tissue implanted in control rats (shown with arrows in A) is not present in rats treated with 2,5-dihydroxybenzenesulfonic (DHBS) (C). • D) Magnification of the area marked with a box in C.
Sprague-Dawley rats were anesthetized as described (Fernandez-Tornero C et al. J Biol Chem, 2003). Endometriotic lesions were induced using a known rat model of endometriosis (Vernon M W and Wilson E A. Fertil Steril, 1985). In summary, 2 mm fragments of the cervix were autologously implanted between branches in the mesenteric vascular tree. The rats were treated or not treated (control) daily during two weeks after the surgery with 2,5-dihydroxybenzene sulfonic acid (DHBS) (200 mg/kg; i.p.). Then, the rats were sacrificed and the endometrial ectopic tissue was removed to make its histological examination. […] This example illustrates the therapeutic activity of 2,5-dihydroxybenzene sulfonate (DHBS) in the treatment of endometriosis.

Nakagawa angioblastoma = test: Topical treatment of Nakagawa angioblastoma (hemangioblastoma) in a child; format: in vivo, human; details: cream 2.5%, topical twice a day, 1 month, one child
Description: Photographs showing the effects of a topical treatment with a cream comprising 2,5-dihydroxybenzenesulfonic (DHBS) in a child suffering from Nakagawa angioblastoma.
The cream comprising 2,5-dihydroxybenzene sulfonic (2.5%) was topically applied twice a day during 1 month on the face of the child suffering from Nakagawa angioblastoma.

## O=S(=O)(O)c1cc(O)ccc1O [DHBS, 2,5-dihydroxybenzenesulfonic acid]
[1]
  HREC proliferation: failed to significantly affect
[2]
  histology of the implanted uterine (cervix) tissue, hematoxylin-eosin: athrophy of the cervix tissue implanted; also recorded: Degeneration of the uterine tissue implanted
  neovascularization of the implanted uterine tissue: not present
Nakagawa angioblastoma
  intensity of the coloration caused by the lesion: decrease in the intensity of the coloration
Nakagawa angioblastoma; listed as 2,5-dihydroxybenzene sulfonic
  intensity of the coloration caused by the lesion: reduction in the intensity of the reddish coloration
